Key:
epileptic Wistar rats = conditions: cited from earlier work
pyramidal cells = test: Penicillin-induced "epileptic" hippocampus section preparation; format: cell-based; conditions: concentration of 6 μM
Protocol: The novel GABAB -antagonists according to the invention interact at the GABAB -receptor with IC50 values of approximately 10^-8 M (mol/l) and above in the corticocerebral membranes of rats. […] The antagonism towards baclofen can also be shown in vitro in electrophysiological models, for example in the penicillin-induced "epileptic" hippocampus section preparation in which baclofen in a concentration of 6 μM (micromol/liter) inhibits "epilepsy-like" discharges from pyramidal cells. The compounds according to the invention act as antagonists of baclofen action in concentrations of about 10 to about 100 μM (micromol/liter). In vivo the antagonism can be shown by ionto-phoresis of baclofen in rat cerebral cortex and by systemic use of antagonists in doses of from 10 to 100 mg/kg. In doses of about 30 mg/kg, antagonism occurs towards the muscle-relaxant action of baclofen, which is measured in the Rotarod model.

Structure (SMILES)	doses that reduce the spike and wave discharges in dependence upon dosage (epileptic Wistar rats) [mg/kg]	also measured
CN1C(=O)OC(C)(C)C1=O [trimethadione]	≥ 50	
CN1C(=O)CN=C(c2ccccc2)c2cc(Cl)ccc21 [diazepam]	≥ 0.5	
NCC(CC(=O)O)c1ccc(Cl)cc1 (centres unmarked) [baclofen]		effect on "epilepsy-like" discharges from pyramidal cells (pyramidal cells): inhibits
O=C1NC(=O)C(c2ccccc2)(c2ccccc2)N1 [phenytoin]		effect on spike and wave discharges / attacks (epileptic Wistar rats): ineffective or worsen the attacks at higher doses
CCC1(c2ccccc2)C(=O)NC(=O)NC1=O [Phenobarbitone]		effect at 20 mg/kg (epileptic Wistar rats; 20 mg/kg): ineffective
CCCC(CCC)C(=O)[O-].[Na+] [sodium valproate]	≥ 50	
CCC1(C)CC(=O)NC1=O (centres unmarked) [ethosuximide]	≥ 25	
NC(=O)N1c2ccccc2C=Cc2ccccc21 [Carbamazepine]		effect on spike and wave discharges / attacks (epileptic Wistar rats): ineffective or worsen the attacks at higher doses

— patent US5376684A, “Aminoalkanephosphinic acids and salts thereof” (Ciba-Geigy Corporation, priority 1991, dated 1994)
